Data reported in PubChem BioAssay AID1845216 (Molecular Pharmacology Branch, DTP, NCI, 2023).
pIC50: −log10 of the molar value. “And” between values parts separate entries of the source, which are not always exact repeats. Identical values can stand only once.

System: SW 982 tumor spheroid viability
Test: Anticancer human tumor SW 982 cell line growth inhibition;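 also: spheroids exposed to compound for 7 days before readout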
Conditions: spheroids with HUVEC and MSC; for viability, T/C: stronger effect = lower value
Method in brief: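 Complex tumor spheroids combined malignant cells with endothelial cells and mesenchymal stem cells. DNA-damaging drugs and DNA repair inhibitors were tested alone and in combination, at half-log dilutions down from clinical Cmax (top 10 microM if Cmax unknown), 0.25% DMSO final.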

[1] = curve of first compound, second compound 0.003 µM
[2] = curve of first compound, second compound 0.00949 µM
[3] = curve of first compound, second compound 0.03 µM
[4] = curve of first compound, second compound 0.0949 µM
[5] = curve of first compound, second compound 0.3 µM

Work on `O=C(c1cc(Cc2n[nH]c(=O)c3ccccc23)ccc1F)N1CCN(C(=O)C2CC2)CC1` + CC[C@@]1(O)C(=O)OCc2c1cc1n(c2=O)Cc2cc3c(CN(C)C)c(O)ccc3nc2-1 yielded a pIC50 [1] of 4.63, a pIC50 [2] of 4.65 and a pIC50 [3] of 4.75. For the same compound, the pIC50 [4] was 4.98, the pIC50 [5] was greater than 7.02 and the viability, T/C (second compound 0.003 µM, first compound 0.0949 µM) was 83.3%. The viability, T/C (second compound 0.003 µM, first compound 0.3 µM) was 80.5%, the viability, T/C (second compound 0.003 µM, first compound 0.949 µM) was 84.1% and the viability, T/C (second compound 0.003 µM, first compound 3 µM) was 78.9%. The viability, T/C (second compound 0.003 µM, first compound 9.49 µM) was 66.6%, the viability, T/C (second compound 0.003 µM, first compound 30 µM) was 45.7% and the viability, T/C (second compound 0.00949 µM, first compound 0.0949 µM) was 85.6%. The viability, T/C (second compound 0.00949 µM, first compound 0.3 µM) was 83.8%, the viability, T/C (second compound 0.00949 µM, first compound 0.949 µM) was 87.1% and the viability, T/C (second compound 0.00949 µM, first compound 3 µM) was 78%. The viability, T/C (second compound 0.00949 µM, first compound 9.49 µM) was 73.7%, the viability, T/C (second compound 0.00949 µM, first compound 30 µM) was 42.2% and the viability, T/C (second compound 0.03 µM, first compound 0.0949 µM) was 72.6%. It also gave a viability, T/C (second compound 0.03 µM, first compound 0.3 µM) of 76.3%, a viability, T/C (second compound 0.03 µM, first compound 0.949 µM) of 81.8% and a viability, T/C (second compound 0.03 µM, first compound 3 µM) of 75.8%. It also gave a viability, T/C (second compound 0.03 µM, first compound 9.49 µM) of 60.5%, a viability, T/C (second compound 0.03 µM, first compound 30 µM) of 41.1% and a viability, T/C (second compound 0.0949 µM, first compound 0.0949 µM) of 63.6%. It also gave a viability, T/C (second compound 0.0949 µM, first compound 0.3 µM) of 66.3%, a viability, T/C (second compound 0.0949 µM, first compound 0.949 µM) of 59.7% and a viability, T/C (second compound 0.0949 µM, first compound 3 µM) of 60.2%. The viability, T/C (second compound 0.0949 µM, first compound 9.49 µM) was 49.6%, the viability, T/C (second compound 0.0949 µM, first compound 30 µM) was 39.4% and the viability, T/C (second compound 0.3 µM, first compound 0.0949 µM) was 36.2%. It also gave a viability, T/C (second compound 0.3 µM, first compound 0.3 µM) of 43.4%, a viability, T/C (second compound 0.3 µM, first compound 0.949 µM) of 43.3% and a viability, T/C (second compound 0.3 µM, first compound 3 µM) of 39.6%. The viability, T/C (second compound 0.3 µM, first compound 9.49 µM) was 31.1% and the viability, T/C (second compound 0.3 µM, first compound 30 µM) was 17.6%.
In the case of `Cn1ncnc1[C@H]1c2n[nH]c(=O)c3cc(F)cc(c23)N[C@@H]1c1ccc(F)cc1`, the viability, T/C (compound 0.00949 µM) was 80.9% and 90% and 94.8%, the viability, T/C (compound 0.03 µM) was 93.7% and 94.9% and 97.7% and the viability, T/C (compound 0.0949 µM) was 88.3% and 90.8% and 91.5%. For the same compound, the viability, T/C (compound 0.3 µM) was 77.9% and 87.9% and 79.2%, the viability, T/C (compound 0.949 µM) was 82.8% and 80.2% and 81.8% and the viability, T/C (compound 3 µM) was 75.7% and 82.9% and 62.9%. It also gave a pIC50 (curve of compound) of less than 5.52.
`CC(C)n1c(=O)n(C)c2cnc3cc(F)c(-c4ccc(OCCCN5CCCCC5)nc4)cc3c21` + CC[C@@]1(O)C(=O)OCc2c1cc1n(c2=O)Cc2cc3c(CN(C)C)c(O)ccc3nc2-1 gave a pIC50 [1] of 5.80, a pIC50 [2] of 5.82 and a pIC50 [3] of 6.02. It also gave a pIC50 [4] of 6.29, a pIC50 [5] of 7.11 and a viability, T/C (second compound 0.003 µM, first compound 0.0316 µM) of 80.2%. It also gave a viability, T/C (second compound 0.003 µM, first compound 0.1 µM) of 77%, a viability, T/C (second compound 0.003 µM, first compound 0.316 µM) of 78.9% and a viability, T/C (second compound 0.003 µM, first compound 1 µM) of 62.5%. The viability, T/C (second compound 0.003 µM, first compound 3.16 µM) was 30.2%, the viability, T/C (second compound 0.003 µM, first compound 10 µM) was 20.3% and the viability, T/C (second compound 0.00949 µM, first compound 0.0316 µM) was 71.6%. It also gave a viability, T/C (second compound 0.00949 µM, first compound 0.1 µM) of 79.7%, a viability, T/C (second compound 0.00949 µM, first compound 0.316 µM) of 64% and a viability, T/C (second compound 0.00949 µM, first compound 1 µM) of 61.4%. The viability, T/C (second compound 0.00949 µM, first compound 3.16 µM) was 34.4%, the viability, T/C (second compound 0.00949 µM, first compound 10 µM) was 18.4% and the viability, T/C (second compound 0.03 µM, first compound 0.0316 µM) was 71.6%. It also gave a viability, T/C (second compound 0.03 µM, first compound 0.1 µM) of 81%, a viability, T/C (second compound 0.03 µM, first compound 0.316 µM) of 59.4% and a viability, T/C (second compound 0.03 µM, first compound 1 µM) of 53.6%. The viability, T/C (second compound 0.03 µM, first compound 3.16 µM) was 25.1%, the viability, T/C (second compound 0.03 µM, first compound 10 µM) was 17.1% and the viability, T/C (second compound 0.0949 µM, first compound 0.0316 µM) was 72.6%. The viability, T/C (second compound 0.0949 µM, first compound 0.1 µM) was 65.5%, the viability, T/C (second compound 0.0949 µM, first compound 0.316 µM) was 58.6% and the viability, T/C (second compound 0.0949 µM, first compound 1 µM) was 39.3%. For the same compound, the viability, T/C (second compound 0.0949 µM, first compound 3.16 µM) was 24.9%, the viability, T/C (second compound 0.0949 µM, first compound 10 µM) was 15.9% and the viability, T/C (second compound 0.3 µM, first compound 0.0316 µM) was 56.4%. It also gave a viability, T/C (second compound 0.3 µM, first compound 0.1 µM) of 46.2%, a viability, T/C (second compound 0.3 µM, first compound 0.316 µM) of 40.8% and a viability, T/C (second compound 0.3 µM, first compound 1 µM) of 30%. For the same compound, the viability, T/C (second compound 0.3 µM, first compound 3.16 µM) was 18.6% and the viability, T/C (second compound 0.3 µM, first compound 10 µM) was 14.5%.
